This passage reports IC50 results from patent US9546164B2 (GENENTECH, INC., priority 2013, dated 2017).

Where a name gives a salt, the structure may show the parent alone.

In the first assay the target is hNav1.7 (Homo sapiens (Human), UniProt Q15858). The assay can be described thus: Tritiated sulfonamide competitive binding to membranes from cells expressing hNav1.7 and the β1 subunit.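 Further: Filter-bound radioactivity counted by liquid scintillation, nonspecific binding defined with excess unlabelled ligand, IC50 fitted to percent inhibition of specific binding.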
Sequence of hNav1.7 (Q15858 other isoform, or with tags, fused parts or gaps): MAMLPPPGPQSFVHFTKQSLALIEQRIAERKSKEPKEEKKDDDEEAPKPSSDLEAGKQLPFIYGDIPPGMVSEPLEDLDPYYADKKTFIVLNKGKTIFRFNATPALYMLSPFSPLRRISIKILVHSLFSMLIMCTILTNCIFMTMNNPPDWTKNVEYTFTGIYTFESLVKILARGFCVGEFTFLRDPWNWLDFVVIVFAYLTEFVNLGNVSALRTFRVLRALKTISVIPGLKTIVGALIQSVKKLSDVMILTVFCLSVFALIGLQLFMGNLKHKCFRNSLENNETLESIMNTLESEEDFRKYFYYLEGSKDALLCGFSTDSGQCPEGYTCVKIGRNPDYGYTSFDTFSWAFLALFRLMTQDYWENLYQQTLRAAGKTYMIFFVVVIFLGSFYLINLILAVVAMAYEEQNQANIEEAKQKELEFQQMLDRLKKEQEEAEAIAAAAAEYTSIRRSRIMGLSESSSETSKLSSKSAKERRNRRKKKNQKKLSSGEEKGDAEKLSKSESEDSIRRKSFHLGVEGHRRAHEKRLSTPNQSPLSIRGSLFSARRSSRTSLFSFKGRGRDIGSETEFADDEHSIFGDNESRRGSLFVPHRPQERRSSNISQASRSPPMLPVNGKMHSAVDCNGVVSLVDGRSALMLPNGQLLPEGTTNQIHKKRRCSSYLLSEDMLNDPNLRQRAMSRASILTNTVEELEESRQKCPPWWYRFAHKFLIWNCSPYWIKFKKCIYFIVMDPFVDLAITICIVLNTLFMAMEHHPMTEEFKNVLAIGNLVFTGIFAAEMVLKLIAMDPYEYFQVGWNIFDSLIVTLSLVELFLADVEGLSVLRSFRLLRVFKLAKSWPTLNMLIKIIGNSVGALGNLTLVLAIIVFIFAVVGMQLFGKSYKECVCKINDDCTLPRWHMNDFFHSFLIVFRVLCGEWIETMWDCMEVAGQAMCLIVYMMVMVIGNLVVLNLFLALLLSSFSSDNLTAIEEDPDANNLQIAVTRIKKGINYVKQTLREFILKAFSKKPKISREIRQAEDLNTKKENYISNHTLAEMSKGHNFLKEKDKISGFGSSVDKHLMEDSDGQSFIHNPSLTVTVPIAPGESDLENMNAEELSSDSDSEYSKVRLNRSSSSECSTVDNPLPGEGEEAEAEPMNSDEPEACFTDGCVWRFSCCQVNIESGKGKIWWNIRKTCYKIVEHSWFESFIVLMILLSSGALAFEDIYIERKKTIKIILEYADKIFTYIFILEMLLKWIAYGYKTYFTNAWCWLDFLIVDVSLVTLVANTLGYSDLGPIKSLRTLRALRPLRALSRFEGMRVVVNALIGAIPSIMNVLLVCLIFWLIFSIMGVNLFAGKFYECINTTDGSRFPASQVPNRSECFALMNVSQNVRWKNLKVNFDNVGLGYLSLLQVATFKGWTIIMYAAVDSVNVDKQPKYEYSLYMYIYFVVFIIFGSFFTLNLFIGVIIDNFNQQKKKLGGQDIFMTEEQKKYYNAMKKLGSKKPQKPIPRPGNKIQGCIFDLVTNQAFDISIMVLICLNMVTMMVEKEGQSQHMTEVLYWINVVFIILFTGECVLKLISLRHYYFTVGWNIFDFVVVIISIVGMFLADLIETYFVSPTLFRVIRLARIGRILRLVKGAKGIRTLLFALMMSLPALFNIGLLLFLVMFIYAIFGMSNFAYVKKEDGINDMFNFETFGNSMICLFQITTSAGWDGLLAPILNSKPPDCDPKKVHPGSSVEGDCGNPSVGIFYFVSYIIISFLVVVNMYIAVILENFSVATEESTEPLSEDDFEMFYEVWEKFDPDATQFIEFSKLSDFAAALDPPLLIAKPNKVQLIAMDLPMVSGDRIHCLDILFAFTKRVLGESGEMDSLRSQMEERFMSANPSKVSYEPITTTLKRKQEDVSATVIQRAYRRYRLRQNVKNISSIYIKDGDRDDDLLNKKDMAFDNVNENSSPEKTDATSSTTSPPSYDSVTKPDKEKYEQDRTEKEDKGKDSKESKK
Sequence of hNav1.7 (Q07699 19-218 partner): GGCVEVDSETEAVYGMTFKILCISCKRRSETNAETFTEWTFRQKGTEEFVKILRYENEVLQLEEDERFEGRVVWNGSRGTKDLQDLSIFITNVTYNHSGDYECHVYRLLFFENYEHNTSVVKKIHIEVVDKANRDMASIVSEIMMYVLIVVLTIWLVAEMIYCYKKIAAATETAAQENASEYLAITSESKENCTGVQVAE
Settings: not given
On to `O=C(NS(=O)(=O)N1CCC1)c1cc(C2CC2)c(O[C@@H]2CCCN(Cc3ccc(F)cc3)C2)cc1F` [Example 22], for which the IC50 turned out to be 18.2 nM.
With `CS(=O)(=O)NC(=O)c1cc(C2CC2)c(O[C@@H]2CCCN(Cc3cccc(Cl)c3)C2)cc1F` [Example 26, (R)-4-((1-(3-chlorobenzyl)piperidin-3-yl)oxy)-5-cyclopropyl-2-fluoro-N-(methylsulfonyl)benzamide acid], the IC50 is 6.1 nM.
Take `CS(=O)(=O)NC(=O)c1cc(C2CC2)c(O[C@@H]2CCCN(Cc3ccc(Cl)cc3Cl)C2)cc1F` [Example 29, (R)-5-cyclopropyl-4-((1-(2,4-dichlorobenzyl)piperidin-3-yl)oxy)-2-fluoro-N-(methylsulfonyl)benzamide]: the IC50 was determined as 1.7 nM.
`O=C(NS(=O)(=O)C1CC1)c1cc(C2CC2)c(CN2CCC(OCc3cc(Cl)cc(Cl)c3)CC2)cc1F` [Example 512, 5-cyclopropyl-N-(cyclopropylsulfonyl)-4-((4-((3,5-dichlorobenzyl)oxy)piperidin-1-yl)methyl)-2-fluorobenzamide, trifluoroacetic acid salt] displayed an IC50 of 16.7 nM.
The same measure, in the same setting: the result for `O=C(NS(=O)(=O)C1CC1)c1cc(C2CC2)c(CN2CCC(Oc3cc(C(F)(F)F)c(Cl)cn3)CC2)cc1F` [Example 522, 4-((4-((5-chloro-4-(trifluoromethyl)pyridin-2-yl)oxy)piperidin-1-yl)methyl)-5-cyclopropyl-N-(cyclopropylsulfonyl)-2-fluorobenzamide, trifluoroacetic acid salt] reads 5.2 nM.
`O=C(NS(=O)(=O)C1CC1)c1cc(C2CC2)c(CN2CCC(CF)(c3ccc(F)cc3)CC2)cc1F` [Example 514, 5-cyclopropyl-N-(cyclopropylsulfonyl)-2-fluoro-4-((4-(fluoromethyl)-4-(4-fluorophenyl)piperidin-1-yl)methyl)benzamide, trifluoroacetic acid salt] came in with an IC50 of 24.4 nM.
Regarding `CC(C)(C)N1CCC[C@@H](Oc2cc(F)c(C(=O)NS(C)(=O)=O)cc2C2CC2)C1` [Example 538, (R)-4-((1-(tert-butyl)piperidin-3-yl)oxy)-5-cyclopropyl-2-fluoro-N-(methylsulfonyl)benzamide], the IC50 came to 7120 nM.

Staying with this assay, now noted: read-out: Ligand Binding Assay; 100 pM [3H]compound, membranes with hNav1.7 and β1 subunit, 18 h, room temperature.
Consider `O=C(NS(=O)(=O)C1CC1)c1cc(C2CC2)c(OCC2CCN(C(c3ccc(Cl)cc3)c3ccc(Cl)cc3)CC2)cc1F` [Example 400, 4-((1-(bis(4-chlorophenyl)methyl)piperidin-4-yl)methoxy)-5-cyclopropyl-N-(cyclopropylsulfonyl)-2-fluorobenzamide, trifluoroacetic acid salt], for which the IC50 was 2.1 nM.
Regarding `COc1ccc(CN2CCC(COc3cc(F)c(C(=O)NS(C)(=O)=O)cc3C3CC3)CC2)cc1Cl` [Example 183, 4-((1-(3-Chloro-4-methoxybenzyl)piperidin-4-yl)methyoxy)-5-cyclopropyl-2-fluoro-N-(methylsulfonyl)benzamide], the IC50 came to 47 nM.
Still for that read-out and setting: the result for `CS(=O)(=O)NC(=O)c1cc(C2CC2)c(OCC2CCN(Cc3cc(C(F)(F)F)ccc3Cl)CC2)cc1F` [Example 580, 4-((1-(2-chloro-5-(trifluoromethyl)benzyl)piperidin-4-yl)methoxy)-5-cyclopropyl-2-fluoro-N-(methylsulfonyl)benzamide] reads 3.7 nM; that for `CS(=O)(=O)N1CCC(COc2cc(F)c(C(=O)NS(=O)(=O)C3CC3)cc2C2CC2)CC1` [Example 394, 5-cyclopropyl-N-(cyclopropylsulfonyl)-2-fluoro-4-((1-(methylsulfonyl)piperidin-4-yl)methoxy)benzamide], 6010 nM; that for `CS(=O)(=O)NC(=O)c1cc(C2CC2)c(OCC2CCN(Cc3ccc(Cl)c(C(F)(F)F)c3)CC2)cc1F` [Example 229, 4-((1-(4-Chloro-3-(trifluoromethyl)benzyl)piperidin-4-yl)methoxy)-5-cyclopropyl-2-fluoro-N-(methylsulfonyl)benzamide], 7.3 nM.
As to `C[C@@H]1CC[C@@H](COc2cc(F)c(C(=O)NS(C)(=O)=O)cc2C2CC2)CN1[C@H](C)c1cc(Cl)cc(Cl)c1` [Example 343, 5-cyclopropyl-4-(((3R,6R)-1-((R)-1-(3,5-dichlorophenyl)ethyl)-6-methylpiperidin-3-yl)methoxy)-2-fluoro-N-(methylsulfonyl)benzamide, trifluoroacetic acid salt], the IC50 came out at 8.4 nM.
`C[C@H](c1cccc(F)c1)N1CCC(C)(COc2cc(F)c(C(=O)NS(C)(=O)=O)cc2C2CC2)CC1` (single isomer, unassigned) [Example 250]: the IC50 stood at 43 nM.
Still for that read-out and setting: the result for `CS(=O)(=O)NC(=O)c1cc(C2CC2)c(O[C@@H]2CCCN(CC3CCC4(CCC4)CC3)C2)cc1F` [Example 444, (R)-5-cyclopropyl-2-fluoro-N-(methylsulfonyl)-4-((11-(spiro[3.5]nonan-7-ylmethyl)piperidin-3-yl)oxy)benzamide, trifluoroacetic acid salt] reads 4.5 nM.
As for `C[Si](C)(C)CCS(=O)(=O)NC(=O)c1cc(C2CC2)c(OCC2CN(C(c3ccccc3)c3ccccc3)C2)cc1F` [Example 60, 4-((1-benzhydrylazetidin-3-yl)methoxy)-5-cyclopropyl-2-fluoro-N-((2-(trimethylsilyl)ethyl)sulfonyl)benzamide], the IC50 is 1600 nM.
`O=C(NS(=O)(=O)C1CC1)c1cc(C2CC2)c(CN2CCC(OCc3ccc(F)cc3Cl)CC2)cc1F` [Example 480, 4-((4-((2-chloro-4-fluorobenzyl)oxy)piperidin-1-yl)methyl)-5-cyclopropyl-N-(cyclopropylsulfonyl)-2-fluorobenzamide, trifluoroacetic acid salt]: the IC50 stood at 21.8 nM.
`CC1(COc2cc(F)c(C(=O)NS(=O)(=O)C3CC3)cc2C2CC2)CN(C(c2ccccc2)c2cc(Cl)cc(Cl)c2)C1` (stereo not shown) [Example 421, 5-cyclopropyl-N-(cyclopropylsulfonyl)-4-((1-((3,5-dichlorophenyl)(phenyl)methyl)-3-methylazetidin-3-yl)methoxy)-2-fluorobenzamide, trifluoroacetic acid salt]: the IC50 is 2.5 nM.
Regarding `COC[C@@H](c1ccc(Cl)c(Cl)c1)N1CCC(COc2cc(F)c(C(=O)NS(C)(=O)=O)cc2C2CC2)CC1` (single isomer, unassigned) [Example 264], the IC50 is 9.2 nM.
Take `O=C(NS(=O)(=O)C1CC1)c1cc(C2CC2)c(OCCC2CCN(Cc3cc(Cl)cc(Cl)c3)CC2)cc1F` [Example 304, 5-cyclopropyl-N-(cyclopropylsulfonyl)-4-(2-(1-(3,5-dichlorobenzyl)piperidin-4-yl)ethoxy)-2-fluorobenzamide, trifluoroacetic acid salt]: the IC50 is 3.7 nM.
On the same count and under the same terms, the result for `O=C(NS(=O)(=O)C1CC1)c1cc(C2CC2)c(CN2CCC(Oc3cccc(C(F)(F)F)c3)CC2)cc1F` [Example 502, trifluoroacetic acid salt] reads 6.8 nM; that for “5-cyclopropyl-2-fluoro-N-(methylsulfonyl)-4-((1-(6-(trifluoromethyl)pyridin-2-yl)piperidin-4-yl)methoxy)benzamide [Example 592]”, 5.4 nM; that for `O=C(NS(=O)(=O)C1CC1)c1cc(C2CC2)c(O[C@@H]2CCCN(Cc3cc(Cl)cc(Cl)c3)C2)cc1F` [Example 3, (R)-5-cyclopropyl-N-(cyclopropylsulfonyl)-4-((1-(3,5-dichlorobenzyl)piperidin-3-yl)oxy)-2-fluorobenzamide], 2.6 nM.
On to `COC[C@H](c1ccccc1)N1CCC(COc2cc(F)c(C(=O)NS(C)(=O)=O)cc2C2CC2)CC1` [Example 223, (S)-5-cyclopropyl-2-fluoro-4-((1-(2-methoxy-1-phenylethyl)piperidin-4-yl)methoxy)-N-(methylsulfonyl)benzamide], for which the IC50 was 250 nM.
For the molecule `CS(=O)(=O)NC(=O)c1cc(C2CC2)c(OCC2CCN(Cc3cc(F)c(F)c(Cl)c3)CC2)cc1F` [Example 456, 4-((1-(3-chloro-4,5-difluorobenzyl)piperidin-4-yl)methoxy)-5-cyclopropyl-2-fluoro-N-(methylsulfonyl)benzamide, trifluoroacetic acid salt], the IC50 was 9.3 nM.
On to `CS(=O)(=O)NC(=O)c1cc(C2CC2)c(OCC2CN(C(c3ccccc3)c3ccc(C(F)(F)F)cc3)C2)cc1F` (stereo not shown) [Example 131, 5-Cyclopropyl-2-fluoro-N-(methylsulfonyl)-4-((1-(phenyl(4-(trifluoromethyl)phenyl)methyl)-azetidin-3-yl)methoxy)benzamide], for which the IC50 was found to be 2.99 nM.
Still for that read-out and setting: the figure for `CC1(COc2cc(F)c(C(=O)NS(C)(=O)=O)cc2C2CC2)CCN(C(=O)c2cc(Cl)ccc2Cl)CC1` [Example 578, 5-cyclopropyl-4-((1-(2,5-dichlorobenzoyl)-4-methylpiperidin-4-yl)methoxy)-2-fluoro-N-(methylsulfonyl)benzamide] is 180 nM; for `CS(=O)(=O)NC(=O)c1cc(C2CC2)c(OCC2CCN(C(c3ccc(F)c(Cl)c3)C(F)(F)F)CC2)cc1F` (stereo not shown) [Example 301, 4-((1-(1-(3-chloro-4-fluorophenyl)-2,2,2-trifluoroethyl)piperidin-4-yl)methoxy)-5-cyclopropyl-2-fluoro-N-(methylsulfonyl)benzamide] it is 3 nM.
Same read-out and setting: the figure for `Cc1ccc(CN2CCC[C@@H](Oc3cc(F)c(C(=O)NS(C)(=O)=O)cc3C3CC3)C2)c(C)c1` [Example 423, (R)-5-cyclopropyl-4-((1-(2,4-dimethylbenzyl)piperidin-3-yl)oxy)-2-fluoro-N-(methylsulfonyl)benzamide, trifluoroacetic acid salt] is 2.1 nM; for `CS(=O)(=O)NC(=O)c1cc(C2CC2)c(OCC2CCN(Cc3cc(Cl)cc(C(F)(F)F)c3)CC2)cc1F` [Example 137, 4-((1-(3-Chloro-5-(trifluoromethyl)benzyl)piperidin-4-yl)methoxy)-5-cyclopropyl-2-fluoro-N-(methylsulfonyl)benzamide] it is 2.05 nM.

The assay is the same for the next values; noted with them: read-out: Ligand Binding Assay; 100 pM [3H]compound, membranes with hNav1.7 and β1 subunit, 18 h, room temperature; trifluoroacetic acid salt.
In the case of `O=C(NS(=O)(=O)C1CC1)c1cc(C2CC2)c(CN2CCC(Oc3ccc(F)cc3Cl)CC2)cc1F` [Example 507, trifluoroacetic acid salt], the IC50 was 81.7 nM.
